Test results: paper PMC6680510, “Benzotriazine Di-Oxide Prodrugs for Exploiting Hypoxia and Low Extracellular pH in Tumors” (Molecules, 2019)

Experiments:
SiHa cells [1] = experiment: IC50 assay (inhibition of proliferation, 4 h exposure, SRB); conditions: SiHa; for IC50: Homo sapiens, 4 h
How it was run: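 Cells exposed to compound for 4 h in titrated medium, then washed and regrown 5 days under standard conditions (oxia, pHe 7.4). Growth read by sulforhodamine B staining; IC50 from 4-parameter logistic regression of duplicate cultures.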

SiHa cells [2] = experiment: IC50 assay modified for chronic hypoxia (oxia, hypoxia, anoxia); type: cell-based; conditions: for IC50: Homo sapiens
Protocol: There are relatively few viable cells in tumors at O2 concentrations as low as in the above anoxic experiments. In addition, extensive changes in gene expression occur under chronic exposure to intermediate O2 concentrations (chronic hypoxia), including the expression of proteins that regulate pHi. […] Therefore, oxic and anoxic exposures were also tested in these same experiments. The 24 h adaptation to hypoxia had little effect on the subsequent growth of the cultures at either pHe value (Figure S6).
To minimize problems with poor cell attachment under chronic hypoxia, the drugs were added from a 3-fold dilution series made in a separate plate, rather than by serial dilution in the plates containing the cells. In addition, the drugs were removed after the 4 h exposure by centrifuging the plates (200g × 5 min) prior to each aspiration. The same modifications were used for the oxic drug exposures in these experiments.

- PCR (IC50 for pHe 7.4/IC50 for pHe 6.5) (SiHa cells [2]; 0.2% O2): 1.39 ± 0.19
- PCR (IC50 for pHe 7.4/IC50 for pHe 6.5) (SiHa cells [2]; 20% O2): 1.98 ± 0.93
- PCR (IC50 for pHe 7.4/IC50 for pHe 6.5) (SiHa cells [2]; <0.01% O2): 1.86 ± 0.59
- IC50 (SiHa cells [2]; 0.2% O2 (24 h before and during 4 h exposure), pHe 6.5): 308 ± 1 µM
- IC50 (SiHa cells [2]; 0.2% O2 (24 h before and during 4 h exposure), pHe 7.4): 428 ± 57 µM
- IC50 (SiHa cells [2]; 4 h, 20% O2, pHe 6.5, 4 h): 707 ± 321 µM
- IC50 (SiHa cells [2]; 4 h, 20% O2, pHe 7.4, 4 h): 1400 ± 162 µM
- IC50 (SiHa cells [2]; 4 h, <0.01% O2, pHe 6.5, 4 h): 160 ± 45 µM
- IC50 (SiHa cells [2]; 4 h, <0.01% O2, pHe 7.4, 4 h): 298 ± 44 µM
- ACR (IC50 for 20% O2/IC50 for <0.01% O2) (SiHa cells [2]; pHe 6.5): 4.42 ± 2.36
- HCR (IC50 for 20% O2/IC50 for 0.2% O2) (SiHa cells [2]; pHe 6.5): 2.30 ± 1.04
- ACR (IC50 for 20% O2/IC50 for <0.01% O2) (SiHa cells [2]; pHe 7.4): 4.70 ± 0.88
- HCR (IC50 for 20% O2/IC50 for 0.2% O2) (SiHa cells [2]; pHe 7.4): 3.28 ± 0.58
Compound: O=C(O)CCc1n[n+]([O-])c2ccccc2[n+]1[O-] [Compound 4a, 3-(2-Carboxyethyl)benzo[e][1,2,4]triazine 1,4-Dioxide]
- IC50 (SiHa cells [1]; read-out: Anoxic IC50, SiHa, pHe 6.5, 4 h, anoxic): 97 ± 4 µM
- IC50 (SiHa cells [1]; read-out: Anoxic IC50, SiHa, pHe 7.4, 4 h, anoxic): 259 ± 26 µM
- IC50 (SiHa cells [1]; read-out: Oxic IC50, SiHa, pHe 6.5, 4 h, oxic): 798 ± 43 µM
- IC50 (SiHa cells [1]; read-out: Oxic IC50, SiHa, pHe 7.4, 4 h, oxic): 1950 ± 170 µM
- TMR (overall TME ratio = oxic IC50 pHe 7.4/anoxic IC50 pHe 6.5) (SiHa cells [1]): 20.2 ± 2.0
- PCR Anoxic (IC50 at pHe 7.4/IC50 at pHe 6.5) (SiHa cells [1]; anoxic): 2.68 ± 0.29
- PCR oxic (IC50 at pHe 7.4/IC50 at pHe 6.5) (SiHa cells [1]; oxic): 2.45 ± 0.25
- ACR (anoxic cytotoxicity ratio = oxic IC50/anoxic IC50) (SiHa cells [1]; pHe 6.5): 8.26 ± 0.58
- IC50 fold higher than for SN30000 (SiHa cells [1]; pHe 6.5 under anoxia, representative experiment): approximately 50 fold
- ACR (anoxic cytotoxicity ratio = oxic IC50/anoxic IC50) (SiHa cells [1]; pHe 7.4): 7.54 ± 1.00
- PCR (pH cytotoxicity ratio) (SiHa cells [1]; representative experiment (Figure 3), oxia and anoxia): ~ 2.5
- ACR (anoxia cytotoxicity ratio) (SiHa cells [1]; representative experiment (Figure 3), pHe 7.4 and 6.5): ~ 8
